According to patent publication US20210128537A1, “T-TYPE CALCIUM CHANNEL MODULATORS AND METHODS OF USE THEREOF” (Praxis Precision Medicines, inc., priority 2016, published 2021):

Tests used:
[1] = target: hCaV3.2 (Homo sapiens, UniProt O95180); test: Inactivated channel state FLIPR assay, concentration-dependent inhibition of hCaV3.2; format: cell-based; settings: logistic function fit
[2] = test system: Naïve wistar rats; test: Drug tolerability study, seven-day osmotic pump; format: in vivo, rat
Experimental: Pumps were filled with either Z944 to deliver a daily dose of 60 mg/kg, levetiracetam to deliver a daily dose of 200 mg/kg or vehicle. For the drug tolerability study, osmotic pumps continuously either Z944, levetiracetam or vehicle for 7 days and for the post-SE study osmotic pumps delivered continuously the different treatments for 28 days.
The neurological side effects of the prolonged administration of Z944 and levetiracetam were assessed over one-week. Naïve wistar rats aged 11 weeks were implanted with a seven-day osmotic pump with Z944 (60 mg/kg/day, n=6), levetiracetam (200 mg/kg/day, n=5) and vehicle (n=6). The animals were evaluated twice per day, morning and afternoon, for side effects from the day of pump implantation to 8 days after.

[3] = test system: GAERS nRT neuron; test: Thalamic slice current-clamp recordings, burst firing in nRT neurons; format: cell-based, rat; settings: 1 mM Z944; for voltage response to depolarizing current, low threshold spiking: in 600 nM TTX
[4] = test system: T-type calcium channels (CaV3.1, CaV3.2, CaV3.3) mRNA; test: Quantitative PCR of T-type Ca2+ channel expression in the hippocampus of post-SE rats; format: in vivo, rat; settings: 9 weeks after treatment ended
Experimental: RNA was extracted using the RNeasy Mini Kit (QIAGEN), DNA elimination columns were used to remove any genomic DNA contamination in accordance with the manufacturer's protocol. RNA concentration and purity was determined using spectrophotometric readings with the NanoDrop 3000 spectrophotometer (NanoDrop Technologies). 1 μg RNA was reverse transcribed to cDNA using the Omniscript RT Kit (QIAGEN) following the manufacturer's protocol. T-type Ca^2+ channel expression was assessed using quantitative polymerase chain reaction (qPCR). Each 10 μl reaction volume consisted in 25 ng of cDNA, 5 μl of TaqMan Universal PCR Master Mix 2× and custom designed TaqMan using catalogued 20× Taqman gene expression assays for CaV3.1 (Assay ID Rn00581051_m1, Applied Biosystems), CaV3.2 (Assay ID Rn01460348_m1, Applied Biosystems), CaV3.3 (Assay ID Rn01505208_m1, Applied Biosystems). Relative mRNA expression of the CaV3.1, CaV3.2 and CaV3.3 were compared to the geometric average of the mRNA levels of the housekeeping genes Rplp1 (Rn03467157_gH), Rpl13a (Rn00821946_g1) and Ywhaz (Assay ID: Rn00755072_m1). Analysis was performed using the ΔΔCT method. The average of the relative expression levels was compared between the different treatment groups.

Sequence of hCaV3.2 (O95180 whole entry): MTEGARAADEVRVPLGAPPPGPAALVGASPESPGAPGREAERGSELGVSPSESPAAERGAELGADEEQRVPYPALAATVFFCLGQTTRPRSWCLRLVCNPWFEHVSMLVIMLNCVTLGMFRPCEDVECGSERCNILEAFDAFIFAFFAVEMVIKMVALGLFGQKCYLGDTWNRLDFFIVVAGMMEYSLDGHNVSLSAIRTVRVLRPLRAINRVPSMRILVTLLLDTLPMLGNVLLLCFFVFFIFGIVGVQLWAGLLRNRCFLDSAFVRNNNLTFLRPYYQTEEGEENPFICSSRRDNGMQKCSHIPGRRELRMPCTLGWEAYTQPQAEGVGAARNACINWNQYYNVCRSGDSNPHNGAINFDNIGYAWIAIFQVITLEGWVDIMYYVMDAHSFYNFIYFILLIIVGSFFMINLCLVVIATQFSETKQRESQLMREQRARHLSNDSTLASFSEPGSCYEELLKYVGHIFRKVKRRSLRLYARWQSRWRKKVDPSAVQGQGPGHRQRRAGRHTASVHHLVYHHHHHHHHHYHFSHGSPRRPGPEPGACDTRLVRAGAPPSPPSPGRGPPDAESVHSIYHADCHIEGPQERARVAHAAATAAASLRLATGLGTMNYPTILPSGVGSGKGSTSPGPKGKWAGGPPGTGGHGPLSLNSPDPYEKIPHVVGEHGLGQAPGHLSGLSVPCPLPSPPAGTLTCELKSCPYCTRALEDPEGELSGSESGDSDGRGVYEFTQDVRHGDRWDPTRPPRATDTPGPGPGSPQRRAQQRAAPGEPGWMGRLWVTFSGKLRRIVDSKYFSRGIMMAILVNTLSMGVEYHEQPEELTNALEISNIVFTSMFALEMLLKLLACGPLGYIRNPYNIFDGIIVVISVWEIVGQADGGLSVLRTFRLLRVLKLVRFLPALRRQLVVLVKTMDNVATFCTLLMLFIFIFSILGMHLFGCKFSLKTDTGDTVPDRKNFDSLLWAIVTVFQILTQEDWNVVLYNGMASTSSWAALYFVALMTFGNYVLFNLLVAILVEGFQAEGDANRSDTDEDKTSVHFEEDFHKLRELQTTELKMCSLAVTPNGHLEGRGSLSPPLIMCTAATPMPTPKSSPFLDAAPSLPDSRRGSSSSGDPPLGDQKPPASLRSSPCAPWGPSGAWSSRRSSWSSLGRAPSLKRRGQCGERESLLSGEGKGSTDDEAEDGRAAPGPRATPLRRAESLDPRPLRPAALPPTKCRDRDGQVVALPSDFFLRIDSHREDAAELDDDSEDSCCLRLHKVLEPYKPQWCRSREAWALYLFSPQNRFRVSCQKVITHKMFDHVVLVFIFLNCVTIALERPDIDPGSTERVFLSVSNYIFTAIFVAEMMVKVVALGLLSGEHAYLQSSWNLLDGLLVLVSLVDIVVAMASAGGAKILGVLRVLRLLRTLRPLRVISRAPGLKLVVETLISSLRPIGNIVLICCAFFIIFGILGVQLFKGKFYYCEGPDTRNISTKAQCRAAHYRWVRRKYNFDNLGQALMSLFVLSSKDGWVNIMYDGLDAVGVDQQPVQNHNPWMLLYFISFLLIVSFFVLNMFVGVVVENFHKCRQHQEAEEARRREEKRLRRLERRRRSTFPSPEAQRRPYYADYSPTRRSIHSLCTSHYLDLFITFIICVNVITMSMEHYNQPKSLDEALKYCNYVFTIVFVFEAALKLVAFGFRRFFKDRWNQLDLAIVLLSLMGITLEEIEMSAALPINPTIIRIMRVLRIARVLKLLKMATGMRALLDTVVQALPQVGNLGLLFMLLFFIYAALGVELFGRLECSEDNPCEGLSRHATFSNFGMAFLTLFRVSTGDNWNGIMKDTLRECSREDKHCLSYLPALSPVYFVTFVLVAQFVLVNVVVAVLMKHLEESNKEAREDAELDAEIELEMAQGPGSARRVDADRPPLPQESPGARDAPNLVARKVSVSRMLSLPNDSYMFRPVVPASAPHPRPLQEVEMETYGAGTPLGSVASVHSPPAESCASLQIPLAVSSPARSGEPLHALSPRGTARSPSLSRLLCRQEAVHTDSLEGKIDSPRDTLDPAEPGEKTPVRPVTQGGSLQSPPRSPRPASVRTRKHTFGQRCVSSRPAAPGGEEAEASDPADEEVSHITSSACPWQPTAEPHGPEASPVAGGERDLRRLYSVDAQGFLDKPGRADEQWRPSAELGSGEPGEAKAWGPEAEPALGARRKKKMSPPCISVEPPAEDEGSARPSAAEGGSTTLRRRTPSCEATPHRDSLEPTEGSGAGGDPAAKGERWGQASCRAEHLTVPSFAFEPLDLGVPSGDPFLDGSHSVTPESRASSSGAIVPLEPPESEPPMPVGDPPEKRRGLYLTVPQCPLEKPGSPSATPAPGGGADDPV

## CC(C)(C)NC(=O)CN1CCC(CNC(=O)c2cc(F)cc(Cl)c2)CC1 [Z944]
[1]
  slope of the concentration-inhibition curve: 1.5
[2]; 60 mg/kg/day osmotic pump, day 2 to day 5
  neurological side effects in comparison to vehicle: transient and minimal side effects
[2]; Z944 60 mg/kg/day vs levetiracetam 200 mg/kg/day, day 2 and 3, p<0.05
  neurological side effects compared to levetiracetam treated animals: significantly reduced neurological side effects
[3]; +80 pA (threshold for burst firing in control)
  voltage response to depolarizing current, burst firing: subthreshold for firing
[3]; +100 pA
  voltage response to depolarizing current, low threshold spiking: subthreshold for low-threshold spiking
[3]; +120 pA (suprathreshold for burst firing in control)
  voltage response to depolarizing current, burst firing: threshold for tonic firing
[3]; +190 pA (suprathreshold in control)
  voltage response to depolarizing current, low threshold spiking: still subthreshold
[4]
  mRNA expression of T-type calcium channels in the hippocampus: Reduced mRNA Expression
